Measurements published in patent publication US20260138985A1, “Azepino-Indoles for the Treatment of Neurological and Psychiatric Disorders” (Terran Biosciences Inc., priority 2021, published 2026).

Assays:
[1] = Metabolic stability in human liver microsomes; assay type: in vitro ADME; conditions: values marked * average of two experiments; for microsomal CLint at 0.2 μM: pH 7.4, intrinsic clearance, read-out: CLint(mic); for CLint scaled at 0.2 μM: pH 7.4, scaled from CLint(mic)
Method: Microsomal Assay: Human liver microsomes (20 mg/mL) are obtained from Xenotech, LLC (Lenexa, KS). β-nicotinamide adenine dinucleotide phosphate, reduced form (NADPH), magnesium chloride (MgCl2), and dimethyl sulfoxide (DMSO) are purchased from Sigma-Aldrich.
Determination of Metabolic Stability: 7.5 mM stock solutions of test compounds of the above structural formula (e.g., of an embodiment or aspect of embodiment thereof described herein), or pharmaceutically acceptable salt thereof, are prepared in DMSO. […] The diluted microsomes are added to wells of a 96-well deep-well polypropylene plate in triplicate. […] Reactions are initiated by addition of pre-warmed NADPH solution. The final reaction volume is 0.5 mL and contains 4.0 mg/mL human liver microsomes, 0.2 μM test compound, and 2 mM NADPH in 0.1 M potassium phosphate buffer, pH 7.4, and 3 mM MgCl2. The reaction mixtures are incubated at 37° C., and […] aliquots are removed at 0, 5, 10, 20, and 30 minutes and added to shallow-well 96-well plates which contain […] of ice-cold ACN (acetonitrile) with internal standard to stop the reactions. The plates are stored at 4° C. for 20 minutes after which […] of water is added to the wells of the plate before centrifugation to pellet precipitated proteins. Supernatants are transferred to another 96-well plate and analyzed for amounts of parent remaining by LC-MS/MS using an Applied Bio-systems API 4000 mass spectrometer. The same procedure is followed for the non-deuterated counterpart of the compound and the positive control, 7-ethoxycoumarin (1 μM). Testing is done in triplicate.
Data analysis: The in vitro Ti/s for test compounds are calculated from the slopes of the linear regression of % parent remaining (In) vs incubation time relationship.
[formula] • k=−[slope of linear regression of % parent remaining (In) vs incubation time] • The apparent intrinsic clearance is calculated using the following equation: […]
Data analysis is performed using Microsoft Excel Software.

5-HT2A receptor = target: T1, 5-HT2A receptor (Homo sapiens, UniProt P28223); experiment: Calcium mobilization assay, agonist format, 5-HT2A receptor; assay type: cell-based; conditions: read-out: 5-HT2A agonist Efficacy @ 10 µM
T1 construct: host or cells: unnamed cell lines
Method: (§1) Protocol—in vitro testing at select 5-hydroxytryptamine (5-HT; serotonin) receptors was conducted.
(§2) • 1. Cell lines were expanded from freezer stocks according to standard procedures. • 2. Cells were seeded in a total volume of 20 μL into black-walled, clear-bottom, Poly-D-lysine coated 384-well microplates and incubated at 37° C. for the appropriate time prior to testing.
(§3) • 1. Assays were performed in 1×Dye Loading Buffer consisting of 1× Dye, 1× Additive A and 2.5 mM Probenecid in HBSS/20 mM Hepes. Probenicid was prepared fresh. • 2. Cells were loaded with dye prior to testing. Media was aspirated from cells and replaced with 20 μL Dye Loading Buffer. • 3. Cells were incubated for 30-60 minutes at 37° C.
(§4) • 1. For agonist determination, cells were incubated with sample to induce response. • 2. After dye loading, cells were removed from the incubator and 10 μL HBSS/20 mM Hepes was added. 3× vehicle was included in the buffer when performing agonist dose curves to define • the EC80 for subsequent antagonist assays. Cells were incubated for 30 minutes at room temperature in the dark to equilibrate plate temperature. • 3. Intermediate dilution of sample stocks was performed to generate 4× sample in assay buffer. • 4. Compound agonist activity was measured on a FLIPR Tetra (MDS). Calcium mobilization was monitored for 2 minutes and 10 μL 4× sample in HBSS/20 mM Hepes was added to the cells 5 seconds into the assay.
(§5) • 1. Compound activity was analyzed using CBIS data analysis suite (ChemInnovation, CA). • 2. For agonist mode assays, percentage activity is calculated using the following formula: % Activity=100%×(mean RFU of test sample−mean RFU of vehicle control)/(mean MAX RFU control ligand −mean RFU of vehicle control). • 3. For positive allosteric mode assays, percentage modulation was calculated using the following formula: % Modulation=100%×((mean RFU of test sample−mean RFU of EC20 control)/(mean RFU of MAX control ligand −mean RFU of EC20 control)). • 4. For antagonist and negative allosteric modulation mode assays, percentage inhibition is calculated using the following formula: % Inhibition=100%×(1−(mean RFU of test sample−mean RFU of vehicle control)/(mean RFU of EC80 control−mean RFU of vehicle control)).
(§6) As discussed above, agonism, or partial agonism, of the 5-HT2A receptor (also known as positive allosteric modulation, or 5-HT2A modulation) is useful for the treatment of neurological and psychiatric disorders. For example, 5-HT2A agonism has been correlated with the promotion of neural plasticity (Ly et al., 2018). Agonism of the 5-HT2B receptor has been associated with unwanted cardiac valvulopathy side-effects, a form of cardio-toxicity (Rothman et al., Circulation. 2000, 102, 2836-2841; Fitzgerald et al., Molecular Pharmacology 2000, 57, 75-81). […] Antagonists of the 5-HT2C receptor are also useful for the treatment of neurological and psychiatric disorders (Kennett et al., Neuropharmacology 1997, 36, 609-620).

5-HT2B receptor = target: T2, 5-HT2B receptor (Homo sapiens, UniProt P41595); experiment: Calcium mobilization assay, agonist format, 5-HT2B receptor; assay type: cell-based; conditions: read-out: 5-HT2B agonist Efficacy @ 5 µM
T2 construct: host or cells: unnamed cell lines
Method: as §1, §2, §3, §4, §5, §6

5-HT2C receptor = target: T3, 5-HT2C receptor (Homo sapiens, UniProt P28335); experiment: Calcium mobilization assay, antagonist format, 5-HT2C receptor; assay type: cell-based; set-up: dose or concentration left out as unconfirmed
T3 construct: host or cells: unnamed cell lines
T3 sequence (P28335 33-458): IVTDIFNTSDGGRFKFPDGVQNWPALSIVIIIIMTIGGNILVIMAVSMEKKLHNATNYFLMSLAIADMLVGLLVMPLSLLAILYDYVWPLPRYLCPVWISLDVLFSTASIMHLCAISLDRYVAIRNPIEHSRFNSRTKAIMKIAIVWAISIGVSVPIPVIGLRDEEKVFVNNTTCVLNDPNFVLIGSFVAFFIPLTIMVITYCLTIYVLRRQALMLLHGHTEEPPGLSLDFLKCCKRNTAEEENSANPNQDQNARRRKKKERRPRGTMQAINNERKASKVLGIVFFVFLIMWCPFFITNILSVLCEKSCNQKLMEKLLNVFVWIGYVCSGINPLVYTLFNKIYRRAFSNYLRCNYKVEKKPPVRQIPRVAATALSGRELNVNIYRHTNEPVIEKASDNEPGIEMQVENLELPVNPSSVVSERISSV
Method: as §1, §2, §3
• 1. For antagonist determination, cells were pre-incubated with sample followed by agonist challenge at the EC80 concentration. • 2. Intermediate dilution of sample stocks was performed to generate 3× sample in assay buffer. • 3. After dye loading, cells were removed from the incubator and […] 3× sample was added. Cells were incubated for 30 minutes at room temperature in the dark to equilibrate plate temperature. Vehicle concentration was 1%. • 4. Compound antagonist activity was measured on a FLIPR Tetra (MDS). Calcium mobilization was monitored for 2 minutes and 10 μL EC80 agonist in HBSS/20 mM Hepes was added to the cells 5 seconds into the assay.
as §5, §6

T2 sequence (P41595 whole entry): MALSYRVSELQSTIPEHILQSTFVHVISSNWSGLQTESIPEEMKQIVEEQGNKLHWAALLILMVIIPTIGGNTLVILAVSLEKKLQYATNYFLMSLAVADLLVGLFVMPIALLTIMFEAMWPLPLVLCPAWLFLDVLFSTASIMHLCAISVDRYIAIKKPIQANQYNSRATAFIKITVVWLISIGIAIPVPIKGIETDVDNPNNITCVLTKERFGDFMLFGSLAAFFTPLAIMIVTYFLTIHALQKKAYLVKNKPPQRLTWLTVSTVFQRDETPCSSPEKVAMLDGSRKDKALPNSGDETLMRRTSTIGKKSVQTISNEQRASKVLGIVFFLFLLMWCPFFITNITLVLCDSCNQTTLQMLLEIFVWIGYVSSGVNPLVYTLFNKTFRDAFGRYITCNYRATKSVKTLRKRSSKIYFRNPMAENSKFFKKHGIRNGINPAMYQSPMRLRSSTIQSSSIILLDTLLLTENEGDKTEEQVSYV
T1 sequence (P28223 whole entry): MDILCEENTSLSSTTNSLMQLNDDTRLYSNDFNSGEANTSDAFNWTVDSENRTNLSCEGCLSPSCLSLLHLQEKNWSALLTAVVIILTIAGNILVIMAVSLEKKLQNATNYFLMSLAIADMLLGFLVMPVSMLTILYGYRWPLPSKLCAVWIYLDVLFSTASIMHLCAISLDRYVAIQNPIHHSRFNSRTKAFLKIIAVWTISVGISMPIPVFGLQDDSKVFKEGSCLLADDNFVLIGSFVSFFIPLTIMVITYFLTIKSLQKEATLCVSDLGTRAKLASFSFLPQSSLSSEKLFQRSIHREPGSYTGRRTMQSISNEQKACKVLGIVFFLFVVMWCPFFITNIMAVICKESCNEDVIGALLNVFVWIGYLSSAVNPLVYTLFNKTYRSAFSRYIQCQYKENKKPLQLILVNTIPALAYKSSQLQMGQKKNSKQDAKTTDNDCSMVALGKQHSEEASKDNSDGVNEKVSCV

`COc1ccc2c3c([nH]c2c1)CCNCC3` [8-methoxy-1,2,3,4,5,6-hexahydroazepino[4,5-b]indole, reference compound] gave a half-life at 0.2 μM ([1]; pH 7.4, half life) of 1.82 h, a microsomal CLint at 0.2 μM [1] of 12.7 µL/min/mg and a CLint scaled at 0.2 μM [1] of 11.4 mL/min/kg. For the same molecule, the activation at 10 µM (5-HT2A receptor) was 85.3%, the activation at 5 µM (5-HT2B receptor) was 0.6% and the inhibition (5-HT2C receptor) was 98.1%.
In the case of `CN1CCc2[nH]c3cc(S(F)(F)(F)(F)F)ccc3c2CC1` [Compound 109, pentafluoro-(3-methyl-2,4,5,6-tetrahydro-1H-azepino[4,5-b]indol-8-yl)-λ^6-sulfane], the activation at 10 µM (5-HT2A receptor) is reported as 13.7%, the activation at 5 µM (5-HT2B receptor) is reported as 8.5% and the inhibition (5-HT2C receptor) is reported as 101%.
Molecule `CN1CCc2[nH]c3cccc(S(F)(F)(F)(F)F)c3c2CC1` [Compound 110, pentafluoro-(3-methyl-2,4,5,6-tetrahydro-1H-azepino[4,5-b]indol-10-yl)-λ^6-sulfane] has an activation at 10 µM (5-HT2A receptor) of 8.9%, an activation at 5 µM (5-HT2B receptor) of 4% and an inhibition (5-HT2C receptor) of 103%.
Molecule `CN1CCc2[nH]c3cc(OC4CC4)ccc3c2CC1` [Compound 117, 8-(cyclopropoxy)-3-methyl-2,4,5,6-tetrahydro-1H-azepino[4,5-b]indole] has an activation at 10 µM (5-HT2A receptor) of 10.4%, an activation at 5 µM (5-HT2B receptor) of 1.7% and an inhibition (5-HT2C receptor) of 99.7%.
For `CN1CCc2[nH]c3c4c(ccc3c2CC1)OCCC4` [Compound 122, 9-methyl-2,3,7,8,9,10,11,12-octahydro-1H-azepino[4,5-b]pyrano[2,3-g]indole], the activation at 10 µM (5-HT2A receptor) was 54%, the activation at 5 µM (5-HT2B receptor) was -0.8% and the inhibition (5-HT2C receptor) was 98.9%.
Work on `CN1CCc2[nH]c3c4c(ccc3c2CC1)OCC4` [Compound 124, 8-methyl-1,2,6,7,8,9,10,11-octahydroazepino[4,5-b]furo[2,3-g]indole] yielded an activation at 10 µM (5-HT2A receptor) of 83.8%, an activation at 5 µM (5-HT2B receptor) of -0.7% and an inhibition (5-HT2C receptor) of 93.1%.
Molecule `CN1CCc2[nH]c3cc(C#N)ccc3c2CC1` [Compound 136, 3-methyl-2,4,5,6-tetrahydro-1H-azepino[4,5-b]indole-8-carbonitrile] has an activation at 10 µM (5-HT2A receptor) of 41.8%, an activation at 5 µM (5-HT2B receptor) of -1% and an inhibition (5-HT2C receptor) of 98.6%.
In the case of `CN1CCc2[nH]c3cccc(C#N)c3c2CC1` [Compound 138, 3-methyl-2,4,5,6-tetrahydro-1H-azepino[4,5-b]indole-10-carbonitrile], the activation at 10 µM (5-HT2A receptor) is reported as 15.4%, the activation at 5 µM (5-HT2B receptor) is reported as -0.4% and the inhibition (5-HT2C receptor) is reported as 100%.
`COc1ccc2c3c([nH]c2c1)CCN(CCO)CC3` [Compound 140, 2-(8-methoxy-2,4,5,6-tetrahydro-1H-azepino[4,5-b]indol-3-yl)ethanol] showed an activation at 10 µM (5-HT2A receptor) of 48.1%, an activation at 5 µM (5-HT2B receptor) of -0.9% and an inhibition (5-HT2C receptor) of 93.8%.
`COc1ccc2c3c([nH]c2c1)CCN(CCS(C)(=O)=O)CC3` [Compound 143, 8-methoxy-3-(2-methylsulfonylethyl)-2,4,5,6-tetrahydro-1H-azepino[4,5-b]indole] gave an activation at 10 µM (5-HT2A receptor) of 42.1%, an activation at 5 µM (5-HT2B receptor) of -0.1% and an inhibition (5-HT2C receptor) of 97.2%.
For `COc1ccc2c3c([nH]c2c1)CCN(CCN(C)C)CC3` [Compound 144, 2-(8-methoxy-2,4,5,6-tetrahydro-1H-azepino[4,5-b]indol-3-yl)-N,N-dimethyl-ethanamine], the activation at 10 µM (5-HT2A receptor) was -0.7%, the activation at 5 µM (5-HT2B receptor) was -0.5% and the inhibition (5-HT2C receptor) was 3.1%.
With `[2H]C([2H])([2H])N1CCc2[nH]c3cc(OC4CC4)ccc3c2CC1` [Compound 145, 8-cyclopropoxy-3-(^2H3)methyl-1H,2H,3H,4H,5H,6H-azepino[4,5-b]indole] the activation at 10 µM (5-HT2A receptor) was 5.8%, the activation at 5 µM (5-HT2B receptor) was 1.5% and the inhibition (5-HT2C receptor) was 101%.
For `[2H]C([2H])([2H])Oc1ccc2c3c([nH]c2c1)CCN(C1CC1)CC3` [Compound 146, 3-cyclopropyl-8-(trideuteriomethoxy)-2,4,5,6-tetrahydro-1H-azepino[4,5-b]indole], the activation at 10 µM (5-HT2A receptor) was 69.4%, the activation at 5 µM (5-HT2B receptor) was 9% and the inhibition (5-HT2C receptor) was 103%.
In the case of `COc1ccc2c3c([nH]c2c1)CCN(C1CC1)CC3` [Compound 164, 3-cyclopropyl-8-methoxy-2,4,5,6-tetrahydro-1H-azepino[4,5-b]indole], the activation at 10 µM (5-HT2A receptor) is reported as 61%, the activation at 5 µM (5-HT2B receptor) is reported as 2.7% and the inhibition (5-HT2C receptor) is reported as 100%.
For `c1cc2c3c([nH]c2cc1OC1CC1)CCN(C1CC1)CC3` [Compound 165, 8-cyclopropoxy-3-cyclopropyl-1,2,3,4,5,6-hexahydroazepino[4,5-b]indole], the activation at 10 µM (5-HT2A receptor) was -2.7%, the activation at 5 µM (5-HT2B receptor) was 0.9% and the inhibition (5-HT2C receptor) was 71.7%.
Work on `CN1CCc2[nH]c3cc4c(cc3c2CC1)OCC4` [Compound 166, 8-methyl-2,3,5,6,7,8,9,10-octahydroazepino[4,5-b]furo[2,3-f]indole] yielded an activation at 10 µM (5-HT2A receptor) of 53.5%, an activation at 5 µM (5-HT2B receptor) of 0.3% and an inhibition (5-HT2C receptor) of 97.9%.
For `O=C(O)Cc1ccccc1Nc1c(Cl)cccc1Cl` [Diclofenac, reference compound], the “CLint(mic)” value ([1]; intrinsic clearance) was 201.9* μL/min/mg and the CLint scaled at 0.2 μM [1] was 182 mL/min/kg.
For `Cc1cc2c(cc1Cl)N(C(=O)Nc1ccc(Oc3cccnc3C)nc1)CC2` [SB242084, reference compound], the inhibition (5-HT2C receptor) was 101%.
`C[C@]12CC[C@H]3[C@@H](CCC4=CC(=O)CC[C@@]43C)[C@@H]1CC[C@@H]2O` [Testosterone, reference compound] showed a microsomal CLint at 0.2 μM [1] of 114 µL/min/mg and a CLint scaled at 0.2 μM [1] of 103 mL/min/kg.
